Measurements reported in patent US20190359547A1, “METHOD OF RETARDING AN ETHYLENE RESPONSE” (CURTIN UNIVERSITY OF TECHNOLOGY, priority 2016, published 2019).

Experiments:
[1] = test system: 'Tegan Blue' Japanese plum fruit; assay: climacteric ethylene level in 'Tegan Blue' plum fruit after fumigation; type: in vivo; details: for level of climacteric ethylene, suppressed, in comparison to the solely ethylene treated fruit: 'Tegan Blue' plum, ethylene only 4.73 μmol kg^-1 h^-1
[2] = test system: 'Tegan Blue' Japanese plum fruit; assay: climacteric respiration (CO2 production) in 'Tegan Blue' plum fruit; type: in vivo; details: ethylene only 0.72 mmol CO2 kg^-1 h^-1
[3] = test system: 'Arctic Pride' nectarine fruit; assay: climacteric ethylene level in 'Arctic Pride' nectarine fruit after fumigation; type: in vivo; details: BC 50 nLL^-1 + ethylene, ethylene only 0.414 μmol kg^-1 h^-1
solubility in water = type: physicochemical
WX17 wax flower = assay: flower/bud abscission in WX17 wax flower; type: in vivo, Wax flower (Chamelaucium Desf.); details: BC 100 nLL^-1 fumigation followed by ethylene exposure (10 μLL^-1)
Protocol: (§1) To evaluate the effects of BC and NC on flower abscission, flowering stems of Wax flower (Chamelaucium Desf.) (WX17, WX73 and WX107) were collected from mature bushes grown at Department of Agriculture and Food Western Australia (DAFWA), Perth (31° 58′ 55″ S/115° 51′ 47″ E). Collected stems were immediately placed upright in buckets with water and recut at 20-25 cm in length (from the cut end to the most extreme opened-flowers). The flower stalks were treated similarly as the fruits with BC (0-100 nLL^−1) or NC (0-100 nLL^−1) and ethylene. The experiments were laid out by following CRD design, having five replications for each treatment and five stalks in each replication. During the treatment period, the flower stalks were placed in small plastic bottles with distilled water. A cone made of nylon mesh was placed at the base of the stalks to check the number of abscised flowers. […]
(§2) The experimental data were analysed following one-way analysis of variance (ANOVA) by using Genstat 13 (release 13.1; Lawes Agricultural Trust, Rothamsted Experimental Station, Harpenden, UK). The effects of various treatments and their interactions were assessed and least significant differences (Fisher's LSD) were calculated by F test at 5% level of significance.

[4] = test system: 'Arctic Pride' nectarine fruit; assay: climacteric respiration (CO2 production) in 'Arctic Pride' nectarine fruit; type: in vivo; details: ethylene only 0.31 mmol CO2 kg^-1 h^-1
[5] = stability at room temperature; type: physicochemical
WX73 wax flower = assay: flower/bud abscission in WX73 wax flower; type: in vivo, Wax flower (Chamelaucium Desf.)
Protocol: as §1, §2

**Q.** For `CC1=CC1` [1-MCP, 1-Methylcyclopropene, reference compound], which “level of climacteric ethylene, suppressed, in comparison to the solely ethylene treated fruit” value ([1]; 1000 nLL^-1 1-MCP fumigation 18 hr + ethylene (10 μL L^-1, 24 hr)) is on record?
**A.** 0.70 fold

**Q.** And the “climacteric respiration, suppressed, than the solely ethylene treated fruit” value ([2]; 1-MCP 1000 μLL^-1 + ethylene)?
**A.** 0.77 fold

**Q.** With `c1ccc2c(c1)C2` [BC, benzocyclopropene] as the molecule, how does the “levels of ethylene, suppressed, than the solely ethylene treated fruit” value [3] read?
**A.** 0.63 fold

**Q.** What about the solubility in water (solubility in water) of the same molecule?
**A.** only partially soluble in water

**Q.** What about the “level of climacteric ethylene, suppressed, in comparison to the solely ethylene treated fruit” value ([1]; 100 nLL^-1 BC fumigation 18 hr + ethylene (10 μL L^-1, 24 hr)) of the same molecule?
**A.** 0.80 fold

**Q.** What about the “effect on climacteric ethylene and respiration compared with 1-MCP (1000 nL L^-1)” value ([1]; BC 100 nL L^-1 versus 1-MCP 1000 nL L^-1, 'Tegan Blue' and 'Fortune' plum, 'Arctic Pride' nectarine) of the same molecule?
**A.** non-significant differences

**Q.** And the “rate of flower/bud abscission” value (WX17 wax flower)?
**A.** 6.05%

**Q.** What about the “suppression of respiration climacteric in comparison to the solely ethylene treated fruit” value ([4]; BC 50 nLL^-1 + ethylene) of the same molecule?
**A.** 0.77 fold

**Q.** What about the “suppression of respiration climacteric in comparison to the solely ethylene treated fruit” value ([4]; BC 50 nLL^-1 without ethylene) of the same molecule?
**A.** 0.71 fold

**Q.** What about the stability [5] of the same molecule?
**A.** stable at room temperature for several months

**Q.** And the “rate of flower/bud abscission” value (WX73 wax flower; 50 nL L^-1 BC followed by ethylene treatment)?
**A.** 22.43%

**Q.** And the “rate of flower/bud abscission” value (WX73 wax flower; 100 nL L^-1 BC followed by ethylene treatment)?
**A.** 28.40%

**Q.** What about the “climacteric respiration, suppressed, than the solely ethylene treated fruit” value ([2]; BC 100 nLL^-1 + ethylene) of the same molecule?
**A.** 0.83 fold
